Measured values published in article PMC11510191, “Exploring Benzo[h]chromene Derivatives as Agents against Protozoal and Mycobacterial Infections” (Pharmaceuticals, 2024).
In brackets after ≈: the same amount, converted by molar mass. Read-outs that look alike come from different tables or passages of the source.

How the values were obtained:
T. cruzi epimastigotes = experiment: Trypanocidal activity on T. cruzi epimastigotes (CL-B5 lacZ, CPRG); format: cell-based, Trypanosoma cruzi clone CL-B5; conditions: for Selectivity Index L929/ T. cruzi: SI = CC50 L929/IC50 parasites; for IC50: Trypanosoma cruzi, 72 h
Method: For in vitro studies of T. cruzi. the clone CL-B5 was used. Parasites were stably transfected with the Escherichia coli β-galactosidase gene (lacZ), provided by Facultad de Farmacia (Universidad Complutense de Madrid). Epimastigotes were grown at 28 °C in liver infusion tryptose broth (Difco, Detroit, MI, USA) with 10% fetal bovine serum (FBS) (Gibco, Carlsbad, CA, USA), penicillin (Ern S.A., Barcelona, Spain), and streptomycin (Reig Jofré S.A., Barcelona. Spain), as described previously, and harvested during the exponential growth phase. Briefly, the screening assay was performed in 96-well microplates (Sarstedt, Inc., Newton, NC, USA) with cultures that had not reached the stationary phase. Briefly, epimastigotes were seeded at 2 × 10^5 parasites/mL in 200 µL growth media. The plates were then incubated with the respective compounds at 28 °C for 72 h. Afterwards, 50 µL of CPRG solution was added, resulting in a final concentration of 200 µM. The plates were incubated at 37 °C for an additional 4 h and then read at 595 nm. Each concentration was tested in triplicate. […] These values were calculated from the sigmoidal dose–response curve adjustment using the statistical software program Graph-Pad Prims 3.0. Benznidazole was used as a reference drug.

[1] = Cytotoxicity on L929 fibroblasts (resazurin); conditions: mouse
[2] = system: Leishmania infantum (L. i) promastigotes; experiment: Leishmanicidal activity on L. infantum promastigotes (resazurin); conditions: for IC50: Leishmania infantum, 48 h, read-out: Leishmanicidal Activity IC50—L. i
Method: (§1) The culture of L. braziliensis (MHOM/CO/88/UA301) and L. infantum (MCAN/ES/92/BCN83) was obtained from the Facultad de Farmacia, Universidad Complutense de Madrid, Spain.
(§2) The maintenance of the strains, the form of cultivation, and the isolation of shape promastigota followed the procedures described by Roldós et al. [8]. The promastigotes were grown at 22 °C in Schneider’s Drosophila medium supplemented with 20% FBS. The assay was performed using a modification of a previous method [47]. Promastigotes (2 × 10^6 parasites/well) were cultured in 96-well plastic plates. Compounds were dissolved in dimethylsulfoxide (DMSO). Different dilutions of the compounds up to a 200 µL final volume were added. After 48 h at 26 °C, 20 µL of 2 mM resazurin solution was added and the oxidation–reduction was quantified at 570 and 600 nm. The solution of resazurin was prepared at 2.5 mM in phosphate-buffered solution (PBS), pH 7.4, and filtered through 0.22 µM prior to use. All tests were carried out in triplicate. Resazurin sodium salt was obtained from Sigma–Aldrich (St. Louis, MO, USA) and stored at 4 °C protected from light. The efficacy of each compound was estimated by calculating the IC50 values.

M. abscessus LIID-03 = experiment: MIC broth microdilution; format: cell-based; conditions: Mycobacteroides abscessus, LIID03, 72 h
B. cereus (G+) = experiment: MIC broth microdilution; format: cell-based; conditions: Bacillus cereus, 24 h
P. aeruginosa (G−) = experiment: MIC broth microdilution; format: cell-based; conditions: Pseudomonas aeruginosa, 24 h
[3] = system: Leishmania brazilensis (L. b) promastigotes; experiment: Leishmanicidal activity on L. braziliensis promastigotes (resazurin); conditions: for IC50: Leishmania, 48 h, read-out: Leishmanicidal Activity IC50—L. b
Method: as §1, §2

[4] = system: M. tuberculosis CIPTIR-F296; experiment: MIC broth microdilution; format: cell-based; conditions: Mycobacterium tuberculosis, CIPTIRF296
M. abscessus LIID-01 = experiment: MIC broth microdilution; format: cell-based; conditions: Mycobacteroides abscessus, LIID01, 72 h
L. innocua (G+) = experiment: MIC broth microdilution; format: cell-based; conditions: Listeria innocua, 24 h
M. fortuitum LIID-01 = experiment: MIC broth microdilution; format: cell-based; conditions: Mycolicibacterium fortuitum, LIID01, 72 h
[5] = system: M. intracellulare LIID-01; experiment: MIC broth microdilution; format: cell-based; conditions: Mycobacterium intracellulare, LIID01
S. typhi (G−) = experiment: MIC broth microdilution; format: cell-based; conditions: Salmonella enterica, 24 h
M. luteus (G+) = experiment: MIC broth microdilution; format: cell-based; conditions: Micrococcus luteus, 24 h
E. faecalis (G+) = experiment: MIC broth microdilution; format: cell-based; conditions: Enterococcus faecalis, 24 h
M. abscessus LIID-02 = experiment: MIC broth microdilution; format: cell-based; conditions: Mycobacteroides abscessus, LIID02, 72 h
[6] = system: M. intracellulare LIID-02; experiment: MIC broth microdilution; format: cell-based; conditions: Mycobacterium intracellulare, LIID02
L. monocytogenes (G+) = experiment: MIC broth microdilution; format: cell-based; conditions: Listeria monocytogenes, 24 h
[7] = system: M. tuberculosis CIPTIR -D152; experiment: MIC broth microdilution; format: cell-based; conditions: Mycobacterium tuberculosis
[8] = system: M. tuberculosis ATCC H37Rv; experiment: MIC broth microdilution; format: cell-based; conditions: Mycobacterium tuberculosis
S. aureus (G+) = experiment: MIC broth microdilution; format: cell-based; conditions: Staphylococcus aureus, 24 h
E. coli (G−) = experiment: MIC broth microdilution; format: cell-based; conditions: Escherichia coli, 24 h
[9] = epimastigotes, read-out: Trypanocidal Activity IC50 T. cruzi

C#CCCC(=O)Oc1c2c(c3ccccc3c1OC(=O)CCC#C)OC(C)(C)C=C2 [Compound 1a]
Selectivity Index L929/ T. cruzi (T. cruzi epimastigotes): 6
IC50 (T. cruzi epimastigotes; [9]): 19.2 µM
CC50 at 24 h [1]: 106 µM
IC50 [2]: 24.9 µM
Selectivity Index L929/ L. i ([2]; SI = CC50 L929/IC50 parasites): 4
MIC (M. abscessus LIID-03): > 200 mg/L
MIC (B. cereus (G+)): > 200 mg/L
MIC (P. aeruginosa (G−)): > 200 mg/L
IC50 [3]: 10.7 µM
Selectivity Index L929/ L. b ([3]; SI = CC50 L929/IC50 parasites): 10
MIC [4]: > 200 mg/L
MIC (M. abscessus LIID-01): > 200 mg/L
MIC (L. innocua (G+)): > 200 mg/L
MIC (M. fortuitum LIID-01): > 200 mg/L
MIC [5]: 50 mg/L (≈ 124 µM)
MIC (S. typhi (G−)): > 200 mg/L
MIC (M. luteus (G+)): > 200 mg/L
MIC (E. faecalis (G+)): > 200 mg/L
MIC (M. abscessus LIID-02): > 200 mg/L
MIC [6]: > 200 mg/L
MIC (L. monocytogenes (G+)): > 200 mg/L
MIC [7]: > 200 mg/L
MIC ([8]; H37RV): > 200 mg/L
MIC (S. aureus (G+)): 100 mg/L (≈ 248 µM)
MIC (E. coli (G−)): > 200 mg/L

CC1(C)C=Cc2c(OC(=O)CCCc3cn(-c4ccc(Cl)cc4)nn3)c(OC(=O)CCCc3cn(-c4ccc(Cl)cc4)nn3)c3ccccc3c2O1 [Compound 3c]
IC50 (T. cruzi epimastigotes; [9]): > 256 µM
CC50 at 24 h [1]: > 256 µM
IC50 [2]: > 256 µM
IC50 [3]: > 256 µM

CC1(C)C=Cc2c(OC(=O)CCCc3cn(Cc4ccc([N+](=O)[O-])cc4)nn3)c(OC(=O)CCCc3cn(Cc4ccc([N+](=O)[O-])cc4)nn3)c3ccccc3c2O1 [Compound 3h]
IC50 (T. cruzi epimastigotes; [9]): > 256 µM
CC50 at 24 h [1]: > 256 µM
IC50 [2]: > 256 µM
MIC (M. abscessus LIID-03): 100 mg/L (≈ 127 µM)
MIC (B. cereus (G+)): > 200 mg/L
MIC (P. aeruginosa (G−)): > 200 mg/L
IC50 [3]: > 256 µM
MIC [4]: > 200 mg/L
MIC (M. abscessus LIID-01): 100 mg/L (≈ 127 µM)
MIC (L. innocua (G+)): > 200 mg/L
MIC (M. fortuitum LIID-01): > 200 mg/L
MIC [5]: > 200 mg/L
MIC (S. typhi (G−)): 100 mg/L (≈ 127 µM)
MIC (M. luteus (G+)): > 200 mg/L
MIC (E. faecalis (G+)): > 200 mg/L
MIC (M. abscessus LIID-02): 100 mg/L (≈ 127 µM)
MIC [6]: > 200 mg/L
MIC (L. monocytogenes (G+)): > 200 mg/L
MIC [7]: > 200 mg/L
MIC ([8]; H37RV): > 200 mg/L
MIC (S. aureus (G+)): 100 mg/L (≈ 127 µM)
MIC (E. coli (G−)): > 200 mg/L

CC1(C)C=Cc2c(OC(=O)CCc3cn(-c4cccc(Cl)c4)nn3)c(OC(=O)CCc3cn(-c4cccc(Cl)c4)nn3)c3ccccc3c2O1 [Compound 2g]
IC50 (T. cruzi epimastigotes; read-out: Trypanocidal Activity IC50 T. cruzi, epimastigotes, 72 h): > 256 µM
CC50 at 24 h [1]: > 384 µM
IC50 [2]: > 256 µM
IC50 [3]: > 256 µM

CC1(C)C=Cc2c(OC(=O)CCCc3cn(-c4ccccc4)nn3)c(OC(=O)CCCc3cn(-c4ccccc4)nn3)c3ccccc3c2O1 [Compound 3a]
IC50 (T. cruzi epimastigotes; [9]): > 256 µM
CC50 at 24 h [1]: > 256 µM
IC50 [2]: > 256 µM
IC50 [3]: > 256 µM

CO[C@H]1/C=C/O[C@@]2(C)Oc3c(C)c(O)c4c(O)c(c(/C=N/N5CCN(C)CC5)c(O)c4c3C2=O)NC(=O)/C(C)=C\C=C\[C@H](C)[C@H](O)[C@@H](C)[C@@H](O)[C@@H](C)[C@H](OC(C)=O)[C@@H]1C [Rifampicin, reference compound]
MIC ([4]; M. tuberculosis CIPTIR-F296, read-out: MIC): 1 mg/L (≈ 1.22 µM)
MIC ([7]; M. tuberculosis CIPTIR -D152, read-out: MIC): 32 mg/L (≈ 38.9 µM)
MIC ([8]; M. tuberculosis ATCC H37Rv, read-out: MIC): 2 mg/L (≈ 2.43 µM)

COc1ccc(-n2cc(CCC(=O)Oc3c4c(c5ccccc5c3OC(=O)CCc3cn(-c5ccc(OC)cc5)nn3)OC(C)(C)C=C4)nn2)cc1 [Compound 2b]
Selectivity Index L929/ T. cruzi (T. cruzi epimastigotes): >1
IC50 (T. cruzi epimastigotes; [9]): 204 µM
CC50 at 24 h [1]: > 256 µM
IC50 [2]: > 256 µM
IC50 [3]: > 256 µM

CC(=O)NC[C@H]1CN(c2ccc(N3CCOCC3)c(F)c2)C(=O)O1 [Linezolid, reference compound]
MIC (M. abscessus LIID-03): 1 mg/L (≈ 2.96 µM)
MIC (M. abscessus LIID-01): 1 mg/L (≈ 2.96 µM)
MIC (M. fortuitum LIID-01): 8 mg/L (≈ 23.7 µM)
MIC [5]: 2 mg/L (≈ 5.93 µM)
MIC (M. abscessus LIID-02): 1 mg/L (≈ 2.96 µM)
MIC [6]: 8 mg/L (≈ 23.7 µM)

CC1(C)C=Cc2c(OC(=O)CCc3cn(Cc4ccc(Br)cc4)nn3)c(OC(=O)CCc3cn(Cc4ccc(Br)cc4)nn3)c3ccccc3c2O1 [Compound 2i]
IC50 (T. cruzi epimastigotes; [9]): > 256 µM
CC50 at 24 h [1]: > 256 µM
IC50 [2]: > 256 µM
IC50 [3]: > 256 µM

CC1(C)C=Cc2c(OC(=O)CCc3cn(-c4ccc(Cl)cc4)nn3)c(OC(=O)CCc3cn(-c4ccc(Cl)cc4)nn3)c3ccccc3c2O1 [Compound 2c]
IC50 (T. cruzi epimastigotes; [9]): > 256 µM
CC50 at 24 h [1]: > 256 µM
IC50 [2]: > 256 µM
IC50 [3]: > 256 µM

COc1ccc(-n2cc(CCCC(=O)Oc3c4c(c5ccccc5c3OC(=O)CCCc3cn(-c5ccc(OC)cc5)nn3)OC(C)(C)C=C4)nn2)cc1 [Compound 3b]
IC50 (T. cruzi epimastigotes; [9]): > 256 µM
CC50 at 24 h [1]: > 256 µM
IC50 [2]: > 256 µM
IC50 [3]: > 256 µM
